According to BigSolDB 2.1:

Cn1c([N+](=O)[O-])cnc1N1CCN(S(C)(=O)=O)C1=O
solubility (mole fraction)
Conditions	293.2 K	298.2 K	303.2 K	308.2 K	313.2 K
in 1,4-butanediol	0.000939	0.00132	0.00176	0.0024	0.00315
in 1,4-dioxane	0.00814	0.0106	0.0127	0.0158	0.0189
in DMAc	0.0363	0.0481	0.0617	0.0765	0.0963
in DMF	0.0406	0.0542	0.0683	0.083	0.103
in DMSO	0.057	0.0702	0.085	0.0987	0.114
in NMP	0.0796	0.116	0.181	0.262	0.366
in ethanol	0.000378	0.00048	0.000582	0.000726	0.000851
in ethylene glycol	0.000879	0.00149	0.00228	0.00358	0.00558
in formamide	0.0476	0.0591	0.0771	0.0938	0.109
in glycerin	0.000743	0.000861	0.000984	0.00114	0.00128
in isopropanol	0.000315	0.000368	0.000447	0.000527	0.000659
in methanol	0.000481	0.000539	0.000624	0.000739	0.000871
in n-propanol	0.000356	0.000436	0.000541	0.000673	0.000832
in propylene glycol	0.00136	0.00232	0.00347	0.00538	0.00836
in water	2.86e-06	3.21e-06	3.66e-06	4.24e-06	5.06e-06

Conditions	solubility (mole fraction)
in PEG-200, 293.2 K	0.00829
in PEG-200, 298.2 K	0.011
in PEG-200, 303.2 K	0.0153
in PEG-200, 308.2 K	0.0205
in PEG-200, 313.2 K	0.0271
in PEG-400, 293.2 K	0.0123
in PEG-400, 298.2 K	0.0176
in PEG-400, 303.2 K	0.0247
in PEG-400, 308.2 K	0.0343
in PEG-400, 313.2 K	0.0462
in PEG-600, 293.2 K	0.015
in PEG-600, 298.2 K	0.0218
in PEG-600, 303.2 K	0.0302
in PEG-600, 308.2 K	0.0429
in PEG-600, 313.2 K	0.058
